Two compounds from paper PMC4864329, “In vitro and in vivo efficacy, toxicity, bio-distribution and resistance selection of a novel antibacterial drug candidate” (Scientific Reports, 2016) can be followed below.

Like-named read-outs stand apart in the source and are kept apart here.

For this data set, the system named is human lymphocytes. The note with it: positive control. As for the experimental part:
Gene toxicity was assessed by testing the potential of SET-M33L to induce micronuclei in human lymphocytes. Human lymphocytes in whole blood culture, stimulated to divide by addition of PHA 48 hours prior to treatment, were exposed to SET-M33L for 3 hours with and without exogenous metabolic activation (S9 mix), and for 20 hours without S9 mix.
Analysis of micronucleated cells was based on the criteria described by Fenech and Morley[37] and Fenech[38]. […] Human lymphocytes from informed donors were pooled and diluted with HML media (RPMI 1640, supplemented with 10% fetal calf serum, 0.2 IU/ml sodium heparin, 20 IU/ml penicillin, 20 μg/ml streptomycin and 2.0 mM L-glutamine). […] Cultures were established from the prepared (pooled) sample and dispensed as 5 ml aliquots (in sterile universal containers) so that each culture contained blood (0.4 ml), HML media (4.5 ml) and PHA solution (0.1 ml). The cultures were then incubated at 37 °C, and the cells were resuspended (twice daily) by gentle inversion.
Lymphocyte cultures were incubated for approximately 48 hours after stimulation with PHA, before addition of SET-M33L; controls were appropriately diluted with vehicle. S9 homogenate was present in appropriate cultures at a final concentration of 2% v/v. Before treatment, all cultures were centrifuged and resuspended in the required volume of fresh medium, taking treatment volume and S9 mix volume into account. SET-M33L preparations were added to cultures at 10% v/v. Cultures were incubated at 37 °C for 3 or 20 hours.
The cells were centrifuged and the medium replaced with fresh medium. Cytochalasin B, at a final concentration of 6 μg/ml, was then added to all cultures. The cultures were incubated for a further 17 hours until the scheduled harvest time.
The cells were harvested by centrifugation at 500 g for 5 minutes. […] The prepared slides were examined by fluorescence microscopy. The incidences of mononucleate, binucleate and polynucleate cells were assessed per culture per 1000 binucleate cells. […]

Turning to `O=P1(N(CCCl)CCCl)NCCCO1` (stereo not drawn) [CPA, Cyclophosphamide], the “Mean of binucleate cells containing micronuclei per 1000 cells” value (3h + S9, 10 μg/ml) amounted to 17.0 per 1000 cells. For `CO[C@@]12[C@H](COC(N)=O)C3=C(C(=O)C(C)=C(N)C3=O)N1C[C@@H]1N[C@@H]12` [MMC, Mitomycin C], the “Mean of binucleate cells containing micronuclei per 1000 cells” value was 28.0 per 1000 cells (3h − S9, 0.2 μg/ml) and 22.5 per 1000 cells (20h − S9, 0.05 μg/ml).
